Source: paper PMC10729961, “Putative purine nucleoside interacting residues in the malaria parasite purine uptake transporter PfENT1 are critical for transporter function” (PLOS ONE, 2023)

Assays:
Format in all cases: cell-based
[1] = test system: yeast expressing S290C PfENT1; assay: 24-h adenosine-dependent growth assay; parameters: key: Mutant strains that did not grow are indicated by (ng, no growth)
Experimental: (§1) The Bioscreen C (Model #: 61400PRO) machine was used to measure proliferation of yeast expressing either wild type or mutant PfENT1 in 24-h assays. Yeast strains were grown overnight in SDM media plus 1 mM adenine. Yeast were spun down and resuspended in sterile water. Yeast were added into wells of honeycomb plates specific for the Bioscreen C (Fisher Scientific Cat No. #NC9976780) to achieve a final OD600 of 0.05 in the total volume of 150 μl per well of yeast and media. […] Each trial contained technical triplicates of every sample. The honeycomb plates were placed in the Bioscreen C where they were shaken continuously on high for 24-h at 30°C. OD600 was measured every 15 min.
(§2) For calculating the doubling time, the formula used was: Dt=ln(2)/kwherek=thegrowthrate
(§3) The k was calculated in Excel using the OD600 values in the growth curve that represented exponential growth (OD600 between 0.2 and 0.6). Alternatively, this formula can also be used: Dt=ln(2)/([ln(OD2)−ln(OD1)]/t2−t1)

[2] = test system: purine auxotrophic yeast (ade2Δ, fui1Δ); assay: 24-h adenosine-dependent growth assay; parameters: key: Mutant strains that did not grow are indicated by (ng, no growth); details: ade2Δ strain
Experimental: as §1, §2, §3

[3] = test system: yeast expressing W53C PfENT1; assay: 24-h adenosine-dependent growth assay; parameters: key: Mutant strains that did not grow are indicated by (ng, no growth)
Experimental: as §1, §2, §3

[4] = test system: yeast expressing R291C PfENT1; assay: 24-h adenosine-dependent growth assay; parameters: key: Mutant strains that did not grow are indicated by (ng, no growth)
Experimental: as §1, §2, §3

[5] = test system: yeast expressing D287C PfENT1; assay: 24-h adenosine-dependent growth assay; parameters: key: Mutant strains that did not grow are indicated by (ng, no growth)
Experimental: as §1, §2, §3

[6] = test system: yeast expressing Q135C PfENT1; assay: 24-h adenosine-dependent growth assay; parameters: key: Mutant strains that did not grow are indicated by (ng, no growth)
Experimental: as §1, §2, §3

[7] = test system: purine auxotrophic yeast (ade2Δ, fui1Δ); assay: [3H]uridine uptake assay, competition with cold adenosine; details: ade2Δ strain; cold adenosine vs [3H]uridine uptake, 15 min
Experimental: The radiolabeled uptake assay measures the ability of an unlabeled purine or pyrimidine substrate to inhibit the uptake of radiolabeled substrate into yeast via PfENT1 as previously described. Yeast strains containing PfENT1 (mutant or WT) were grown overnight in SDM media to a final OD600 between 0.2 and 0.5. Purine auxotrophic yeast used as a negative control were grown in YPD media. Yeast were spun down and washed three times with 15 mL phosphate buffered saline (PBS; 137 mM NaCl, 2.7 mM KCl, 10 mM KH2PO4, 10 mM Na2HPO4, pH 7.4). The final volume of yeast in PBS varied but it was diluted to a final OD600 = 0.2. […] For determination of minimal and maximal uptake, yeast strains were incubated without radioactivity or with radioactivity but no cold substrate competition, respectively. […] The amount of radioactivity in each well was measured by liquid scintillation counting using a 1450 MicroBeta TriLux (Perkin Elmer). The counts per minute (cpm) were recorded and technical triplicates were averaged. IC50 values were calculated, and statistical analysis was performed using GraphPad/Prism9 software. […]
Statistical significance was calculated using one-way analysis of variance (ANOVA) with GraphPad/Prism9 software. IC50 values were calculated using the non-linear regression dose-response inhibition log(inhibitor) vs normalized response program. […]

[8] = test system: yeast expressing V52C PfENT1; assay: 24-h adenosine-dependent growth assay; details: mean±SEM
Experimental: as §1, §2, §3

[9] = test system: yeast expressing L289C PfENT1; assay: 24-h adenosine-dependent growth assay; details: mean±SEM
Experimental: as §1, §2, §3

[10] = test system: yeast expressing WT PfENT1; assay: 24-h adenosine-dependent growth assay; details: mean±SEM; for Avg. Doubling time (h) Adenosine growth assay 1 mM: 1 mM adenosine sole purine source; for Avg. Doubling time (h) Adenosine growth assay 2 mM: 2 mM adenosine sole purine source
Experimental: as §1, §2, §3

[11] = test system: yeast expressing A134C PfENT1; assay: 24-h adenosine-dependent growth assay; details: mean±SEM
Experimental: as §1, §2, §3

[12] = test system: yeast expressing N51C PfENT1; assay: 24-h adenosine-dependent growth assay; details: mean±SEM
Experimental: as §1, §2, §3

[13] = test system: yeast expressing S48C PfENT1; assay: 24-h adenosine-dependent growth assay; details: mean±SEM
Experimental: as §1, §2, §3

[14] = test system: yeast expressing I137C PfENT1; assay: 24-h adenosine-dependent growth assay; details: mean±SEM
Experimental: as §1, §2, §3

[15] = test system: yeast expressing T136C PfENT1; assay: 24-h adenosine-dependent growth assay; details: mean±SEM
Experimental: as §1, §2, §3

[16] = test system: yeast expressing S49C PfENT1; assay: 24-h adenosine-dependent growth assay; details: mean±SEM
Experimental: as §1, §2, §3

[17] = test system: yeast expressing F286C PfENT1; assay: 24-h adenosine-dependent growth assay
Experimental: as §1, §2, §3

[18] = test system: yeast expressing L50C PfENT1; assay: 24-h adenosine-dependent growth assay; details: for Avg. Doubling time (h) Adenosine growth assay 1 mM: 1 mM adenosine sole purine source; for Avg. Doubling time (h) Adenosine growth assay 1 mM / Avg. Doubling time (h) Adenosine growth assay 2 mM: 24 h, mean±SEM; for Avg. Doubling time (h) Adenosine growth assay 2 mM: 2 mM adenosine sole purine source
Experimental: as §1, §2, §3

[19] = test system: yeast expressing F288C PfENT1; assay: 24-h adenosine-dependent growth assay; details: mean±SEM
Experimental: as §1, §2, §3

[20] = 1 mM adenosine sole purine source
[21] = 2 mM adenosine sole purine source

## Nc1ncnc2c1ncn2[C@@H]1O[C@H](CO)[C@@H](O)[C@H]1O [Adenosine, adenosine]
[1]; [20]
  Avg. Doubling time (h) Adenosine growth assay 1 mM: ng
[1]; [21]
  Avg. Doubling time (h) Adenosine growth assay 2 mM: ng
[2]; 1 mM adenosine sole purine source, mean±SEM
  Avg. Doubling time (h) Adenosine growth assay 1 mM: ng
[2]; [21]
  Avg. Doubling time (h) Adenosine growth assay 2 mM: ng
[3]; [20]
  Avg. Doubling time (h) Adenosine growth assay 1 mM: ng
[3]; [21]
  Avg. Doubling time (h) Adenosine growth assay 2 mM: ng
[4]; [20]
  Avg. Doubling time (h) Adenosine growth assay 1 mM: ng
[4]; [21]
  Avg. Doubling time (h) Adenosine growth assay 2 mM: ng
[5]; [20]
  Avg. Doubling time (h) Adenosine growth assay 1 mM: ng
[5]; [21]
  Avg. Doubling time (h) Adenosine growth assay 2 mM: ng
[6]; [20]
  Avg. Doubling time (h) Adenosine growth assay 1 mM: ng
[6]; [21]
  Avg. Doubling time (h) Adenosine growth assay 2 mM: ng
[7]
  Average IC50 (μM) Adenosine: no uptake
[8]; [20]
  Avg. Doubling time (h) Adenosine growth assay 1 mM: 4.20 ± 0.23 h
[8]; [21]
  Avg. Doubling time (h) Adenosine growth assay 2 mM: 3.78 ± 0.29 h
[9]; [20]
  Avg. Doubling time (h) Adenosine growth assay 1 mM: 3.08 ± 0.25 h
[9]; [21]
  Avg. Doubling time (h) Adenosine growth assay 2 mM: 3.12 ± 0.33 h
[10]
  Avg. Doubling time (h) Adenosine growth assay 1 mM: 3.13 ± 0.36 h
  Avg. Doubling time (h) Adenosine growth assay 2 mM: 3.72 ± 0.21 h
[10]; listed as adenosine
  Avg. Doubling time (h) Adenosine growth assay 1 mM: 3.1 h
  Avg. Doubling time (h) Adenosine growth assay 2 mM: 3.7 h
[11]; [20]
  Avg. Doubling time (h) Adenosine growth assay 1 mM: 4.42 ± 0.25 h
[11]; [21]
  Avg. Doubling time (h) Adenosine growth assay 2 mM: 4.09 ± 0.24 h
[12]; [20]
  Avg. Doubling time (h) Adenosine growth assay 1 mM: 3.46 ± 0.26 h
[12]; [21]
  Avg. Doubling time (h) Adenosine growth assay 2 mM: 3.89 ± 0.41 h
[13]; [20]
  Avg. Doubling time (h) Adenosine growth assay 1 mM: 3.77 ± 0.17 h
[13]; [21]
  Avg. Doubling time (h) Adenosine growth assay 2 mM: 3.68 ± 0.42 h
[14]; [20]
  Avg. Doubling time (h) Adenosine growth assay 1 mM: 3.99 ± 0.50 h
[14]; [21]
  Avg. Doubling time (h) Adenosine growth assay 2 mM: 3.5 ± 0.16 h
[15]; [20]
  Avg. Doubling time (h) Adenosine growth assay 1 mM: 3.12 ± 0.27 h
[15]; [21]
  Avg. Doubling time (h) Adenosine growth assay 2 mM: 3.06 ± 0.09 h
[16]; [20]
  Avg. Doubling time (h) Adenosine growth assay 1 mM: 3.06 ± 0.28 h
[16]; [21]
  Avg. Doubling time (h) Adenosine growth assay 2 mM: 2.99 ± 0.16 h
[17]; [20]
  Avg. Doubling time (h) Adenosine growth assay 1 mM: slow growth
[17]; [21]
  Avg. Doubling time (h) Adenosine growth assay 2 mM: slow growth
[18]
  Avg. Doubling time (h) Adenosine growth assay 1 mM: 5.83 ± 0.47 h
  Avg. Doubling time (h) Adenosine growth assay 2 mM: 7.16 ± 1.21 h
[18]; listed as adenosine
  Avg. Doubling time (h) Adenosine growth assay 1 mM: 5.8 h
  Avg. Doubling time (h) Adenosine growth assay 2 mM: 7.2 h
[18]; in both 1 mM and 2 mM adenosine
  increase of doubling time compared to WT PfENT1 control: 1.9 fold
[19]; [20]
  Avg. Doubling time (h) Adenosine growth assay 1 mM: 3.61 ± 0.60 h
[19]; [21]
  Avg. Doubling time (h) Adenosine growth assay 2 mM: 3.57 ± 0.53 h
